Test results taken from PMC4286721, “Structural insights into the catalytic mechanism of aldehyde-deformylating oxygenases” (Protein & Cell, 2014).

Legend:
[1] = biological target: T1, SeADO (cADO from Synechococcus elongates PCC7942) (Synechococcus elongatus, UniProt Q54764); assay: X-ray crystal structure (WT1, […] A; also WT0, […] A, iron-free); GC-QqQ-MS/MS of extracted ligand; format: binding; settings: co-purified ligand in substrate channel; head group bound to Fe2 of di-iron center in WT1; modelled as long-chain fatty alcohol, C18 identified by MS
T1 construct: gene Synpcc7942_1593
T1 sequence (Q54764 1-231): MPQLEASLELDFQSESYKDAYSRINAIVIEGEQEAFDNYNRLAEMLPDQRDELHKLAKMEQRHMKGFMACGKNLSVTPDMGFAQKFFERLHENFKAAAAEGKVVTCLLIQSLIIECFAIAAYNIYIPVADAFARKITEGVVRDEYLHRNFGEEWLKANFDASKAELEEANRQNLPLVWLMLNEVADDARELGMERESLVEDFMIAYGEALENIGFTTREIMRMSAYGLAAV

[2] = biological target: T1, SeADO (cADO from Synechococcus elongates PCC7942); assay: GC of n-hexane in headspace; format: biochemical; settings: 2 mM n-heptanal, 4% DMSO, ferredoxin, ferredoxin reductase, 800 uM NADPH, 60 uM ferrous ammonium sulphate, O2, HEPES pH 7.2, 37 C

Row | SMILES | X-ray crystal structure (WT1, 2.3 A; also WT0, 2.26 A, iron-free); GC-QqQ-MS/MS [1] | GC of n-hexane in headspace [2]
1 | CCCCCCCCCCCCCCCCCCO [Lred, C18 fatty alcohol] | the dominant of the remaining components was identified as a C18 fatty alcohol | –
2 | CCCCCCC=O [n-heptanal] | – | N-heptanal was selected as the substrate to measure the activity of cADO proteins.
